Results published in patent US20110269825A1, “Modified Thromboxane A2 Receptor Promoter Sequence” (priority 2008, published 2011).

B1: NAB1: Egr1 co-repressor NGFI-A-binding protein 1, over-expressed from pCMV5-NAB1 (protein)
chain: MAAALPRTLGELQLYRILQKANLLSYFDAFIQQGGDDVQQLCEAGEEEFLEIMALVGMASKPLHVRRLQKALRDWVTNPGLFNQPLTSLPVSSIPIYKLPEGSPTWLGISCSSYERSSNAREPHLKIPKCAATTCVQSLGQGKSDVVGSLALQSVGESRLWQGHHATESEHSLSPADLGSPASPKESSEALDAAAALSVAECVERMAPTLPKSDLNEVKELLKTNKKLAKMIGHIFEMNDDDPHKEEEIRKYSAIYGRFDSKRKDGKHLTLHELTVNEAAAQLCVKDNALLTRRDELFALARQISREVTYKYTYRTTKSKCGERDELSPKRIKVEDGFPDFQDSVQTLFQQARAKSEELAALSSQQPEKVMAKQMEFLCNQAGYERLQHAERRLSAGLYRQSSEEHSPNGLTSDNSDGQGERPLNLRMPNLQNRQPHHFVVDGELSRLYPSEAKSHSSESLGILKDYPHSAFTLEKKVIKTEPEDSR

Columns and labels:
[1] = tested on: WI-38 (human lung fibroblast) cells; assay: Dual luciferase genetic reporter assay in WI-38 cells; format: cell-based
Protocol: (§1) HEL and EA.hy 926 cells were co-transfected with the various pGL3Basic-recombinant plasmids (2 mg), encoding firefly luciferase, along with pRL-TK (200 ng), encoding renilla luciferase, using DMRIE-C® transfection reagent. HEK293, WI-38, and 1° hAoSMCs were co-transfected with the pGL3Basic-recombinant plasmids (2 mg), along with pRL-TK (200 ng), using Effectene transfection reagent. In all cases, cells co-transfected with pRL-TK (200 ng) in the presence of either the pGL3Control vector (firefly luciferase gene under the control of the SV40 promoter; 2 mg) or the promoter-less pGL3Basic empty vector (2 mg), which served as positive and negative controls, respectively. Firefly and renilla luciferase expression was assayed some 48 h post-transfection using the Dual-Luciferase Reporter Assay System™, as described (Coyle et al., 2005). Relative firefly to renilla luciferase activity (arbitrary units) was calculated as a ratio and was expressed in relative luciferase units (RLU). To investigate the effect of over-expression of exon 5 (+ or −) or KTS (+ or −) isoforms of WT1 on Prm1-directed gene expression, HEL cells were co-transfected with either pGL3b:Prm1 or pGL3b:Prm1D (1.5 μg) plus 200 ng of pRL-TK along with either pcDNA3:WT1 (+/+), pcDNA3:WT1 (+/−), pcDNA3:WT1 (−/+), pcDNA3:WT1 (−/−) (0.5 μg), or as a control, pcDNA3 (0.5 μg). Cells were harvested 48 h post-transfection and assayed for luciferase activity, as above, or subjected to western blot or RT-PCR analysis. The plasmids pcDNA3:WT1 (+/+), pcDNA3:WT1 (+/−), pcDNA3:WT1 (−/+) and pcDNA3:WT1 (−/−) were generously donated by Dr. Charles T. Roberts JR, Oregon National Primate Research Center, Oregon, USA and have been previously described (Tajinda et al., 1999). For PMA studies, approximately 32 h post-transfection, the medium was supplemented with PMA (100 nM), with PMA (100 nM) and PD98059 (10 μM) or, as a control, with vehicle [0.1% (v/v) DMSO]. After 16 h, cells were assayed for firefly and renilla luciferase using the Dual-Luciferase Reporter Assay System™ as previously described (Coyle et al., 2005). […]

[2] = tested on: HEK (Human embryonic kidney) 293 cells; assay: Dual luciferase genetic reporter assay in HEK 293 cells; format: cell-based
Protocol: as §1

[3] = tested on: 1° hAoSMC (primary human aortic smooth muscle) cells; assay: Dual luciferase genetic reporter assay in 1° hAoSMC; format: cell-based; conditions: for Mean firefly relative to renilla luciferase activity: co-transfected with pRL-TK
Protocol: as §1

[4] = tested on: HEL 92.1.7 cells; assay: Dual luciferase genetic reporter assay of promoter-directed luciferase expression in HEL cells; format: cell-based, human
Protocol: HEL and EA.hy 926 cells were co-transfected with the various pGL3Basic-recombinant plasmids (2 mg), encoding firefly luciferase, along with pRL-TK (200 ng), encoding renilla luciferase, using DMRIE-C® transfection reagent. HEK293, WI-38, and 1° hAoSMCs were co-transfected with the pGL3Basic-recombinant plasmids (2 mg), along with pRL-TK (200 ng), using Effectene transfection reagent. In all cases, cells co-transfected with pRL-TK (200 ng) in the presence of either the pGL3Control vector (firefly luciferase gene under the control of the SV40 promoter; 2 mg) or the promoter-less pGL3Basic empty vector (2 mg), which served as positive and negative controls, respectively. Firefly and renilla luciferase expression was assayed some 48 h post-transfection using the Dual-Luciferase Reporter Assay System™, as described (Coyle et al., 2005). Relative firefly to renilla luciferase activity (arbitrary units) was calculated as a ratio and was expressed in relative luciferase units (RLU). To investigate the effect of over-expression of exon 5 (+ or −) or KTS (+ or −) isoforms of WT1 on Prm1-directed gene expression, HEL cells were co-transfected with either pGL3b:Prm1 or pGL3b:Prm1D (1.5 μg) plus 200 ng of pRL-TK along with either pcDNA3:WT1 (+/+), pcDNA3:WT1 (+/−), pcDNA3:WT1 (−/+), pcDNA3:WT1 (−/−) (0.5 μg), or as a control, pcDNA3 (0.5 μg). Cells were harvested 48 h post-transfection and assayed for luciferase activity, as above, or subjected to western blot or RT-PCR analysis. The plasmids pcDNA3:WT1 (+/+), pcDNA3:WT1 (+/−), pcDNA3:WT1 (−/+) and pcDNA3:WT1 (−/−) were generously donated by Dr. Charles T. Roberts JR, Oregon National Primate Research Center, Oregon, USA and have been previously described (Tajinda et al., 1999). For PMA studies, approximately 32 h post-transfection, the medium was supplemented with PMA (100 nM), with PMA (100 nM) and PD98059 (10 μM) or, as a control, with vehicle [0.1% (v/v) DMSO]. After 16 h, cells were assayed for firefly and renilla luciferase using the Dual-Luciferase Reporter Assay System™ as previously described (Coyle et al., 2005). The plasmid pCMV5-NAB1, containing the entire coding sequence for NAB1, was generously donated by Dr. Gerald Thiel, University of Saarland Medical Center, Homburg, Germany, and has been described previously (Thiel et al., 2000). To investigate the effect of over-expression of NAB1 on the PMA-mediated induction of Prm1-directed gene expression, HEL cells were transiently co-transfected with pGL3b:Prm1 (2 μg) plus pRL-TK (200 ng) along with either pCMV5 (control) or pCMV:NAB1 (1 μg). Cells were harvested 48 h post-transfection and assayed for luciferase activity, as above.

[5] = tested on: EA.hy 926 (human endothelial) cells; assay: Dual luciferase genetic reporter assay in EA.hy 926 cells; format: cell-based
Protocol: as §1

[6] = tested on: human tissue factor (hTF); assay: Immunoblot analysis of promoter-driven human tissue factor expression in HEL cells; format: cell-based; conditions: 48 h post-transfection, compared with CMV promoter (pcDNA3.1(−):hTF) and pcDNA3.1(−)
Protocol: The expression of WT1, Sp1, Egr1, NF-E2, GATA-1 and Ets-1 proteins in HEL cells was confirmed by western blot analysis. Briefly, whole cell protein was resolved by SDS-PAGE (10% acrylamide gels) and transferred to polyvinylidene difluoride (PVDF) membrane according to standard methodology. Membranes were screened using anti-WT1, anti-NF-E2, anti-Sp1, anti-Egr1, anti-GATA-1 or anti-Ets-1 sera in 5% non fat dried milk in 1×TBS (0.01 M Tris/HCl, 0.1 M NaCl) for 2 h at room temperature followed by washing and screening using goat anti-rabbit horseradish peroxidase (sc-2204) followed by chemiluminescence detection, as described by the supplier (Roche Applied Science). For PMA studies, HEL cells were pre-incubated for the indicated amount of time with 100 nM PMA, with 10 μM PD98059, with 100 nM PMA plus 10 μM PD98059 or, as a control, with vehicle [0.1% (v/v) DMSO]. Whole cell protein (60 μg per lane) was resolved by SDS-PAGE (10% acrylamide gels) and transferred to polyvinylidene difluoride (PVDF) membrane according to standard methodology. […] Cells were harvested 48 hr post-transfection and aliquots ([…]) were analysed by SDS-PAGE/western blot analysis. As a positive control for hTF expression, […] of a commercial control Tissue-Factor Biomass was also analysed. […]

[7] = tested on: Prm1-directed luciferase expression; assay: Effect of over-expression of WT1 isoforms, Egr1 or NAB1 on Prm1-directed luciferase expression in HEL cells; format: cell-based, human
Protocol: as §1, with “μg).” for “μg). Cells were harvested 48 h post-transfection and assayed for luciferase activity, as above, or subjected to western blot or RT-PCR analysis. The plasmids pcDNA3:WT1 (+/+), pcDNA3:WT1 (+/−), pcDNA3:WT1 (−/+) and pcDNA3:WT1 (−/−) were generously donated by Dr. Charles T. Roberts JR, Oregon National Primate Research Center, Oregon, USA and have been previously described (Tajinda et al., 1999). For PMA studies, approximately 32 h post-transfection, the medium was supplemented with PMA (100 nM), with PMA (100 nM) and PD98059 (10 μM) or, as a control, with vehicle [0.1% (v/v) DMSO]. After 16 h, cells were assayed for firefly and renilla luciferase using the Dual-Luciferase Reporter Assay System™ as previously described (Coyle et al., 2005).”

| Molecule | Ratio of luciferase expression relative to that directed by pGL3Control ([1]; WI-38) | Statistical significance of luciferase expression vs Prm1 ([1]; WI-38, ↑ = increase) | Mean firefly relative to renilla luciferase activity ([1]; WI-38 cells, co-transfected with pRL-TK) [RLU] | Ratio of luciferase expression relative to that directed by pGL3Control ([2]; HEK) | Statistical significance of luciferase expression vs Prm1 ([2]; HEK 293, ↑ = increase) | Mean firefly relative to renilla luciferase activity ([2]; HEK 293 cells, co-transfected with pRL-TK) [RLU] | Ratio of luciferase expression relative to that directed by pGL3Control [3] | Mean firefly relative to renilla luciferase activity [3] [RLU] | Mean firefly relative to renilla luciferase activity ([3]; listed as pGL3BPrm1GC-8146) [RLU] | Ratio of luciferase expression relative to that directed by pGL3Control ([4]; HEL) | Mean firefly relative to renilla luciferase activity ([4]; HEL cells, co-transfected with pRL-TK, 48 h post-transfection) [RLU] | Increase in luciferase activity relative to Prm1 (−8500) ([4]; HEL, 5′ deletion or site-directed mutation of Prm1) [fold] | Luciferase expression compared with another construct, in words ([4]; HEL, comparator as named in the words or parent fragment) | Ratio of luciferase expression relative to that directed by pGL3Control ([5]; EA.hy 926) | Statistical significance of luciferase expression vs Prm1 ([5]; EA.hy 926, ↑ = increase) | Mean firefly relative to renilla luciferase activity ([5]; EA.hy 926 cells, co-transfected with pRL-TK) [RLU] | Level of human tissue factor expression driven by the promoter [6] | Effect of NAB1 over-expression on PMA-induction of Prm1 activity ([7]; HEL, PMA 100 nM 16 h) | Effect of NAB1 over-expression on Prm1-directed luciferase activity ([7]; vehicle-treated HEL cells) |
| --- | --- | --- | --- | --- | --- | --- | --- | --- | --- | --- | --- | --- | --- | --- | --- | --- | --- | --- | --- |
| Prm1^GC*^(−8146): Prm1 with GC element at −8146 mutated (SEQ ID NO:13) (DNA CGGGGGTCGTGGGGTGGATGGCGGGCCAA; expressed or natural sequence; listed as Homo sapiens) | 0.51 | ns | 59.01 | 0.69 | ns | 6.9 | 1.18 | 82.67 | 82.668 | 2.65 | 21.5 | 2.5 | significantly stronger promoters | 0.06 | ns | 3.11 | significantly greater |  |  |
| B1 |  |  |  |  |  |  |  |  |  |  |  |  |  |  |  |  |  | significantly reduced the PMA-induction of Prm1 activity | did not significantly affect Prm1-directed luciferase activity |
